# Source: US20060025566A1, “Macrocyclic modulators of the ghrelin receptor” (Tranzyme Pharma Inc., priority 2003, published 2006)
# Where two headings read alike, the source gives them in different places.
# Target: T1, human growth hormone secretagogue receptor (hGHS-R1a) (Homo sapiens, UniProt Q92847)
# T1 construct: purchased PerkinElmer BioSignal #RBHGHSM, lot#1887; host or cells: HEK-293, stably transfected (membranes)
# Assay: Competitive radioligand binding assay (ghrelin receptor), [125I]-ghrelin displacement on GHS-R/HEK 293 membranes
# Description: The competitive binding assay at the human growth hormone secretagogue receptor (hGHS-R1a) was carried out analogously to assays described in the literature.
# Multiscreen Harvest plates-GF/C (Millipore, #MAHFC 1H60) • 4. […] Bottom seal (Millipore, #MATAH0P00) • 7. […] Binding Buffer: 25 mM Hepes (pH 7.4), 1 mM CaCl2, 5 mM MgCl2, 2.5 mM EDTA, 0.4% BSA Assay Volumes
# Competition experiments were performed in a 300 μl filtration assay format. • 1. 220 μL of membranes diluted in binding buffer • 2. 40 μL of compound diluted in binding buffer • 3. […] Compound Handling
# Compounds were provided frozen on dry ice at a stock concentration of 10 mM diluted in 100% DMSO and stored at −80° C. until the day of testing. On the test day, compounds were allowed to thaw at rt O/N and then diluted in assay buffer according to the desired test concentrations.
# Plates were sealed with TopSeal-A, vortexed gently and incubated at rt for 30 min. The reaction was arrested by filtering samples through Multiscreen Harvest plates (pre-soaked in 0.5% polyethyleneimine) using a Tomtec Harvester, washed 9 times with 500 μL of cold 50 mM Tris-HCl (pH 7.4, 4° C.), and then plates were air-dried in a fumehood for 30 min. A bottom seal was applied to the plates prior to the addition of 25 μL of MicroScint-0 to each well. […] Results were expressed as counts per minute (cpm).
# Data were analyzed by GraphPad Prism (GraphPad Software, San Diego, Calif.) using a variable slope non-linear regression analysis.
# • 1. […] Key Aspects of Method • 1. […] Results
# [1] = binding activity at the human ghrelin receptor, [125I]-ghrelin competition, GHS-R/HEK 293 membranes, read-out: Ki
# [2] = binding activity at the human ghrelin receptor, [125I]-ghrelin displacement, read-out: Ki
# [3] = [125I]-ghrelin competition, GHS-R/HEK 293 membranes, Table 3A, read-out: Binding Activity at the Human Ghrelin Receptor
# [4] = Table 3E, human ghrelin receptor, read-out: Ki
# [5] = second table titled 3C (compounds 435-449), human ghrelin receptor, read-out: Ki
# T1 sequence (Q92847 whole entry): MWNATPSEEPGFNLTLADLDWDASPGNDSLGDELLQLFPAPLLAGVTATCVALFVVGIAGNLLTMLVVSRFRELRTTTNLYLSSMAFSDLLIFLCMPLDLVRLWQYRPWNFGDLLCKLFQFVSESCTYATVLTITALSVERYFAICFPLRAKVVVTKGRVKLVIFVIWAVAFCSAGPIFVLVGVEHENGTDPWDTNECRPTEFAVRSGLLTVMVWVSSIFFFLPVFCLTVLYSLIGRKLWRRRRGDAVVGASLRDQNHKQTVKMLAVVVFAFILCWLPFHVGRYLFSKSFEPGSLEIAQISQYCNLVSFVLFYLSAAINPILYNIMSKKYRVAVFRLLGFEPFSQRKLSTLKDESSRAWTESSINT
SMILES,Ki [1],further results
CC1(C)NCCOc2ccccc2C=CCNC(=O)[C@H](Cc2cccc(Cl)c2)NC(=O)C(C)(C)NC1=O (stereo in doubt) [compound 350],–,"Ki (Table 3C (compounds 18, 334-397), human ghrelin receptor, read-out: Ki): 100 to 1000 nM"
CN1CC(=O)NC(Cc2ccccc2)C(=O)NCCCc2ccccc2OCCNCC1=O (centres unmarked) [compound 80],> 10000 nM,–
C[C@@H]1C(=O)N[C@H](Cc2ccc(F)cc2)C(=O)NCCCc2ccccc2OCCN[C@@H](CN)C(=O)N1C [compound 337],–,Ki [2]: 100 to 1000 nM
CN1CC(=O)N[C@H](Cc2ccccc2)C(=O)NCCCc2ccccc2OCCN[C@@H](CO)C1=O [compound 76],> 10000 nM,–
CC(C)CC1NCCOc2ccccc2C=CCNC(=O)C(Cc2ccccn2)NC(=O)C2(CCCC2)NC1=O (stereo in doubt) [160a],–,Ki [3]: > 1000 nM
CC(C)C1NCCOc2ccccc2C=CCNC(=O)C(Cc2ccccc2)NC(=O)C2(CCSCC2)NC1=O (stereo in doubt) [compound 143],100 to 1000 nM,–
CC(C)C[C@H]1NCCOc2ccccc2CCCNC(=O)[C@@H](Cc2ccccc2)NC(=O)C2(CCCC2)NC1=O [compound 98],> 10000 nM,–
C[C@@H]1NCCOc2ccccc2CCCNC(=O)[C@@H](Cc2ccccc2)NC(=O)CN(C)C1=O [compound 72],1000 to 10000 nM,–
CCC[C@@H]1NCCOc2ccccc2CCCNC(=O)[C@H](Cc2ccccc2)NC(=O)[C@@H]2CCCN2C1=O,–,Ki [4]: 1000 to 10000 nM
CC(C)[C@@H]1NCCOc2ccccc2C=CCNC(=O)[C@H](Cc2ccccc2)NC(=O)C2(CCCCC2)NC1=O (stereo in doubt) [compound 139],100 to 1000 nM,–
CCC(C)[C@@H]1NCCOc2ccccc2CCCNC(=O)[C@@H](Cc2ccccc2)N2CC[C@H](NC1=O)C2=O (some centres unmarked),–,Ki [4]: > 10000 nM
O=C1NC2(CCCC2)C(=O)NC(Cc2ccccc2)C(=O)NCC=Cc2ccccc2OCCNC1Cc1cccs1 (stereo in doubt) [compound 135],100 to 1000 nM,–
CCCC1NCc2cccc(c2)CNC(=O)C(Cc2ccccc2)NC(=O)CN(C)C1=O (centres unmarked) [compound 84],1000 to 10000 nM,–
CC[C@H](C)[C@@H]1NCCOc2ccccc2CCCNC(=O)[C@@H](C(C)C)NC(=O)[C@@H](C)N(C)C1=O [compound 174],–,Ki [3]: 100 to 1000 nM
CC[C@H](C)[C@@H]1NCCOc2ccccc2CCCNC(=O)[C@@H](CCc2ccccc2)NC(=O)[C@@H](C)N(C)C1=O [compound 169],–,Ki [3]: 10 to 100 nM
CCCC1NCCC#CCCNC(=O)C(Cc2ccccc2)NC(=O)CN(C)C1=O (centres unmarked) [compound 82],> 10000 nM,–
CC(C)C[C@@H]1NCCOc2ccccc2C=CCNC(=O)[C@H](Cc2ccc3ccccc3c2)NC(=O)C2(CCCC2)NC1=O (stereo in doubt) [compound 159],–,Ki [3]: 10 to 100 nM
C[C@@H]1C(=O)N[C@H](Cc2ccccc2)C(=O)NCCCc2ccccc2OCCN2CCCC[C@H]2C(=O)N1C [drawing 1187],–,Ki [4]: 10 to 100 nM
CC[C@H](C)[C@@H]1NCCOc2ccccc2CCCNC(=O)C(Cc2cccc(Cl)c2)NC(=O)C2(CCCC2)NC1=O (stereo in doubt) [compound 369],–,Ki [2]: 10 to 100 nM
CC(C)CC1NCCOc2ccccc2CCCNC(=O)C(Cc2ccccc2)NC(=O)C2(CCCC2)NC1=O (centres unmarked) [compound 96],> 10000 nM,–
O=C1CNCCOc2ccccc2CCCNC(=O)C(Cc2ccccc2)NC(=O)C2(CCCC2)N1 (centres unmarked) [compound 112],1000 to 10000 nM,–
CC[C@H](C)[C@@H]1NCCOc2ccccc2CCCNC(=O)[C@@H](Cc2ccncc2)NC(=O)[C@@H](C)N(C)C1=O [compound 171],–,Ki [3]: 10 to 100 nM
COC[C@@H]1NCCOc2ccccc2CCCNC(=O)[C@@H](Cc2ccc(F)cc2)NC(=O)[C@@H](C)N(C)C1=O [compound 336],–,Ki [2]: 100 to 1000 nM
O=C1NC2(CCCC2)C(=O)N[C@@H](Cc2ccccc2)C(=O)NCC=Cc2ccccc2OCCN[C@H]1Cc1ccccc1Cl (stereo in doubt) [compound 122],100 to 1000 nM,–
CC(C)C[C@@H]1NCCOc2ccccc2C=CCNC(=O)[C@H](Cc2cccs2)NC(=O)C2(CCCC2)NC1=O (stereo in doubt) [compound 164],–,Ki [3]: 100 to 1000 nM
"CC1C(=O)NC(Cc2ccc(F)cc2)C(=O)NCCOCCOCCNC(C2CC2)C(=O)N1C (single isomer, unassigned) [446a]",–,Ki [5]: 1000 to 10000 nM

SMILES,Ki [1],further results
"CC(C)CC1NCCOc2ccccc2/C=C/CNC(=O)C(Cc2c[nH]cn2)NC(=O)C2(CCCC2)NC1=O (single isomer, unassigned) [444a]",–,Ki [5]: > 10000 nM
CC(C)C[C@@H]1NCCOc2ccccc2C=CCNC(=O)[C@H](CCC(=O)O)NC(=O)C2(CCCC2)NC1=O (stereo in doubt) [compound 45],> 10000 nM,–
CCC(C)C1NC(=O)C2(CCCC2)NC(=O)C(CC(C)C)NCCOc2ccccc2C=CCNC1=O (centres unmarked) [compound 166],–,Ki [3]: > 10000 nM
CCC[C@@H]1NCCOc2ccccc2CCCNC(=O)[C@@H](Cc2ccccc2)NC(=O)[C@H](CCCCN)NC1=O [compound 68],1000 to 10000 nM,–
CCC[C@@H]1NC(=O)[C@@H](C(C)C)NCCOc2ccccc2C=CCNC(=O)[C@H](Cc2ccccc2)NC1=O (stereo in doubt) [compound 13],100 to 1000 nM,–
CC1C(=O)NC(Cc2ccc(Cl)c(Cl)c2)C(=O)NCCCc2ccccc2OCCNC(C2CC2)C(=O)N1C (centres unmarked) [compound 315],–,Ki [2]: 0.1 to 10 nM
CCC[C@@H]1NCCOc2ccccc2CCCNC(=O)[C@@H](Cc2ccccc2)NC(=O)CNC1=O [compound 61],100 to 1000 nM,–
C[C@@H]1C(=O)N[C@H](Cc2ccc(F)cc2)C(=O)NCCCc2ccccc2OCCN[C@@H](CCCN)C(=O)N1C [compound 339],–,Ki [2]: 100 to 1000 nM
CCCC1NCCOCCNC(=O)C(Cc2ccccc2)NC(=O)CN(C)C1=O (centres unmarked) [compound 81],> 10000 nM,–
CCC(C)C1NCCOc2ccccc2C=CCNC(=O)C(Cc2ccc(C(=O)O)cc2)NC(=O)C2(CCCC2)NC1=O (centres unmarked) [compound 441],–,Ki [5]: 1000 to 10000 nM
O=C1NC2(CCCC2)C(=O)N[C@@H](Cc2ccccc2)C(=O)NCCCc2ccccc2OCCN[C@H]1CO [compound 105],100 to 1000 nM,–
C[C@@H]1C(=O)N[C@H](Cc2ccccc2)C(=O)NCCCc2ccccc2OCCNC2(CC2)C(=O)N1C [compound 121],> 10000 nM,–
CC(C)C[C@@H]1NCCOc2ccccc2C=CCNC(=O)[C@H](CCc2ccccc2)NC(=O)C2(CCCC2)NC1=O (stereo in doubt) [compound 155],> 500 nM,–
CC(C)[C@@H]1NCCOc2ccccc2C=CCNC(=O)[C@H](Cc2ccccc2)NC(=O)C2(CC2)NC1=O (stereo in doubt) [compound 199],–,Ki [3]: 100 to 1000 nM
CCC[C@@H]1NCCOc2ccccc2CCCNC(=O)[C@@H](Cc2ccccc2)NC(=O)[C@@H](CC(C)C)NC1=O [compound 63],> 10000 nM,–
C[C@@H]1C(=O)N[C@H](Cc2ccc(F)c(F)c2)C(=O)NCCCc2ccccc2OCCN[C@@H](C2CC2)C(=O)N1C [compound 316],–,Ki [2]: 10 to 100 nM
CC[C@H](C)[C@@H]1NCCOc2ccccc2CCCNC(=O)[C@@H](Cc2c[nH]cn2)NC(=O)[C@@H](C)N(C)C1=O [compound 305],–,Ki [2]: 100 to 1000 nM
"CCC(C)C1NCCOc2ccccc2/C=C/CNC(=O)C(CO)NC(=O)C2(CCCC2)NC1=O (single isomer, unassigned) [442a]",–,Ki [5]: > 10000 nM
CCC[C@@H]1NCCOc2ccccc2CCCNC(=O)[C@@H](Cc2ccccc2)NC(=O)[C@H](CC(C)C)NC1=O [compound 62],1000 to 10000 nM,–
CC[C@H](C)[C@@H]1NCCOc2ccccc2C=CCNC(=O)[C@H](Cc2ccccc2)NC(=O)C2(CCCC2)NC1=O (stereo in doubt) [compound 138],10 to 100 nM,–
O=C1NC2(CCCC2)C(=O)N[C@@H](Cc2ccccc2)C(=O)NCC=Cc2ccccc2OCCN[C@H]1Cc1ccc(Cl)cc1 (stereo in doubt) [compound 124],1000 to 10000 nM,–
O=C1NC2(CCCC2)C(=O)NC(Cc2ccccc2)C(=O)NCC=Cc2ccccc2OCCNC1Cc1ccc(F)cc1 (centres unmarked) [compound 125],> 10000 nM,–
CC(C)C[C@@H]1NCCOc2ccccc2CCCNC(=O)[C@H](Cc2ccc(O)cc2)NC(=O)C2(CCCC2)NC1=O [compound 88],1000 to 10000 nM,–
CCC(C)C1NCCOc2ccccc2CCCNC(=O)C(Cc2ccccc2)N2CCC(C2=O)N(C)C1=O (stereo not drawn) [230 diastereomer],–,Ki [4]: 1000 to 10000 nM
CC[C@H](C)[C@@H]1NCCOc2ccccc2CCCNC(=O)[C@@H]([C@@H](C)CC)NC(=O)[C@@H](C)N(C)C1=O [compound 209],–,Ki [3]: 100 to 1000 nM

# The next lines start with results.
Ki [1],SMILES,further results
1000 to 10000 nM,CC(C)CC1NCCOc2ccccc2CCCNC(=O)C(Cc2ccccc2)NC(=O)C(C)NC1=O (centres unmarked) [compound 93],–
1000 to 10000 nM,CC(C)C[C@@H]1NCCOc2ccccc2CCCNC(=O)[C@H](Cc2ccccc2)NC(=O)[C@@H](C)NC1=O [compound 94],–
> 1000 nM,CC[C@H](C)[C@@H]1NCCOc2ccccc2CCCNC(=O)[C@@H](Cc2ccccc2)NC(=O)[C@H](CC(C)C)N(C)C1=O [compound 148],–
100 to 1000 nM,CCC(C)C1NCCOc2ccccc2CCCNC(=O)C(Cc2ccccc2)NC(=O)C(C(C)C)N(C)C1=O (centres unmarked) [compound 144],–
100 to 1000 nM,"CCC(C)C1NCCOc2ccccc2CCCNC(=O)C(Cc2ccccc2)NC(=O)C(C(C)C)N(C)C1=O (single isomer, unassigned) [145a]",–
